The text below walks through data of patent US10568879B2 (GALAPAGOS NV, priority 2015, dated 2020).

Where only a bound is given, the exact number is not on record here.

T1 sequence (Q9NQS5 whole entry): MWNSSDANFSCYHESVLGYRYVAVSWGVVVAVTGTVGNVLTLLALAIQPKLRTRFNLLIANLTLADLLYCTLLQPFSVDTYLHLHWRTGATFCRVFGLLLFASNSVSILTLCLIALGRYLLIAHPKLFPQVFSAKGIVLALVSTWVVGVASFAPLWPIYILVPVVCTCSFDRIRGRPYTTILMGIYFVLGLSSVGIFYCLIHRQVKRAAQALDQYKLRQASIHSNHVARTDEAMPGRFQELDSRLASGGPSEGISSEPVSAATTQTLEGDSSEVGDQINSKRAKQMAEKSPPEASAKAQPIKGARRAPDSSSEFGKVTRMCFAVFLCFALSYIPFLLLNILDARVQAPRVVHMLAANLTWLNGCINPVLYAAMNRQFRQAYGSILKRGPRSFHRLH

One test has as its target T1, GPR84 (Homo sapiens, UniProt Q9NQS5).
T1 construct: expressed in transfected cells
The experiment in a line: GPR84 [35S]GTPγS binding assay. The class given is biochemical. To be noted: 3,3′-diindolylmethane at EC80; membranes from stable cell line over expressing GPR84. In short, it runs like this:
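Antagonist-mode [35S]GTPγS binding on membranes from a GPR84-overexpressing stable line (GDP-preincubated), stimulated with 3,3′-diindolylmethane at EC80. Buffer 20 mM Tris pH 7.5, 5 mM MgCl2, 250 mM NaCl, saponin; 0.1 nM [35S]GTPγS, 90 min at room temperature, SPA bead read-out.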
For orientation: Binding of GTPγS marks nucleotide exchange on a G protein.
For `COc1cc2c(cc1OC)-c1cc(=O)cc(NCC3CCCO3)n1CC2` (centres unmarked) [Compound 4, 9,10-Dimethoxy-4-[(tetrahydro-furan-2-ylmethyl)-amino]-6,7-dihydro-pyrido[2,1-a]isoquinolin-2-one], the IC50 was > 1000 nM.
Regarding `COc1cc2c(cc1OC)-c1c(C)c(=O)cc(NC[C@@H]3COCCO3)n1CC2` [Compound 6, 4-[[(2R)-1,4-dioxan-2-yl]methylamino]-9,10-dimethoxy-1-methyl-6,7-dihydrobenzo[a]quinolizin-2-one], the IC50 is 500 to 1000 nM.
On the same count and under the same terms, the value for `Cc1c2n(c(NCC3CCCO3)cc1=O)CCc1cc(OCC3CC3(F)F)ccc1-2` (centres unmarked) [Compound 7, 9-(2,2-Difluoro-cyclopropylmethoxy)-1-methyl-4-[(tetrahydro-furan-2-ylmethyl)-amino]-6,7-dihydro-pyrido[2,1-a]isoquinolin-2-one] was 0.01 to 100 nM; that for `Cc1c2n(c(NCC3CCCO3)cc1=O)CCc1cc(OC3CCCO3)ccc1-2` (centres unmarked) [Compound 9, -Methyl-4-[(tetrahydro-furan-2-ylmethyl)-amino]-9-(tetrahydro-furan-2-yloxy)-6,7-dihydro-pyrido[2,1-a]isoquinolin-2-one] was 100 to 500 nM.
On the same count and under the same terms, the value for `Cc1c2n(c(NCC3CCCCO3)cc1=O)CCc1cc(OCC(F)F)ccc1-2` (centres unmarked) [Compound 13, 9-(2,2-difluoroethoxy)-1-methyl-4-(tetrahydropyran-2-ylmethylamino)-6,7-dihydrobenzo[a]quinolizin-2-one] was 100 to 500 nM; that for `CCOC(=O)N1CCC(Oc2ccc3c(c2)CCn2c(OC[C@@H]4COCCO4)cc(=O)c(C)c2-3)C1` (stereo partly drawn) [Compound 145, ethyl 3-[[4-[[(2S)-1,4-dioxan-2-yl]methoxy]-1-methyl-2-oxo-6,7-dihydrobenzo[a]quinolizin-9-yl]oxy]pyrrolidine-1-carboxylate] was 0.01 to 100 nM; that for `Cc1c2n(c(OC[C@@H]3COCCO3)cc1=O)CCc1cc(C3CN(C(=O)C4CC4)C3)ccc1-2` [Compound 146, 9-[1-(cyclopropanecarbonyl)azetidin-3-yl]-4-[[(2S)-1,4-dioxan-2-yl]methoxy]-1-methyl-6,7-dihydrobenzo[a]quinolizin-2-one] was 500 to 1000 nM.
`CCOC(=O)N1CC(c2ccc3c(c2)CCn2c(OC[C@@H]4COCCO4)cc(=O)c(C)c2-3)C1` [Compound 147, ethyl 3-[4-[[(2S)-1,4-dioxan-2-yl]methoxy]-1-methyl-2-oxo-6,7-dihydrobenzo[a]quinolizin-9-yl]azetidine-1-carboxylate] gave an IC50 of 0.01 to 100 nM.
Same read-out and setting: the value for `Cc1c2n(c(OC[C@@H]3COCCO3)cc1=O)CCc1cc(C3CN(C(=O)N(C)C)C3)ccc1-2` [Compound 148, 3-[4-[[(2S)-1,4-dioxan-2-yl]methoxy]-1-methyl-2-oxo-6,7-dihydrobenzo[a]quinolizin-9-yl]-N,N-dimethyl-azetidine-1-carboxamide] was 500 to 1000 nM; that for `Cc1c2n(c(OC[C@@H]3COCCO3)cc1=O)CCc1cc(C3CN(C(=O)NC(C)C)C3)ccc1-2` [Compound 149, 3-[4-[[(2S)-1,4-dioxan-2-yl]methoxy]-1-methyl-2-oxo-6,7-dihydrobenzo[a]quinolizin-9-yl]-N-isopropyl-azetidine-1-carboxamide] was 500 to 1000 nM.
`Cc1c2n(c(OC[C@@H]3COCCO3)cc1=O)CCc1cc(OC3CN(C(=O)N(C)C)C3)ccc1-2` [Compound 150, 3-[[4-[[(2S)-1,4-dioxan-2-yl]methoxy]-1-methyl-2-oxo-6,7-dihydrobenzo[a]quinolizin-9-yl]oxy]-N,N-dimethyl-azetidine-1-carboxamide] came in with an IC50 of 500 to 1000 nM.
Same read-out and setting: the value for `Cc1c2n(c(OC[C@@H]3COCCO3)cc1=O)CCc1cc(OC3CN(C(=O)NC(C)C)C3)ccc1-2` [Compound 151] was 500 to 1000 nM; that for `Cc1c2n(c(OCC3CC(C)(C)O3)cc1=O)CCc1cc(OCc3ccccc3)ccc1-2` (centres unmarked) [Compound 152, 9-benzyloxy-4-[(4,4-dimethyloxetan-2-yl)methoxy]-1-methyl-6,7-dihydrobenzo[a]quinolizin-2-one] was 100 to 500 nM; that for `Cc1c2n(c(OCC3(C)CCCO3)cc1=O)CCc1cc(OCc3ccccc3)ccc1-2` (centres unmarked) [Compound 153, 9-benzyloxy-1-methyl-4-[(2-methyltetrahydrofuran-2-yl)methoxy]-6,7-dihydrobenzo[a]quinolizin-2-one] was 100 to 500 nM.
Still for that read-out and setting: the same measure for `Cc1c2n(c(OCC3CCC(C)(C)O3)cc1=O)CCc1cc(OCc3ccccc3)ccc1-2` (centres unmarked) [Compound 154, 9-benzyloxy-4-[(5,5-dimethyltetrahydrofuran-2-yl)methoxy]-1-methyl-6,7-dihydrobenzo[a]quinolizin-2-one]: 0.01 to 100 nM; for `Cc1c2n(c(OC[C@@H]3COCCO3)cc1=O)CCc1cc(OCC(F)(F)C(F)(F)F)ccc1-2` [Compound 155, 4-[[(2S)-1,4-dioxan-2-yl]methoxy]-1-methyl-9-(2,2,3,3,3-pentafluoropropoxy)-6,7-dihydrobenzo[a]quinolizin-2-one]: 0.01 to 100 nM; for `Cc1c2n(c(OC[C@@H]3COCCO3)cc1=O)CCc1ccccc1-2` [Compound 156, 4-[[(2S)-1,4-dioxan-2-yl]methoxy]-1-methyl-6,7-dihydrobenzo[a]quinolizin-2-one]: 100 to 500 nM.
Still for that read-out and setting: the value for `Cc1c2n(c(OC[C@@H]3COCCO3)cc1=O)CCc1cc(N3CCCC3=O)ccc1-2` [Compound 157, 4-[[(2S)-1,4-dioxan-2-yl]methoxy]-1-methyl-9-(2-oxopyrrolidin-1-yl)-6,7-dihydrobenzo[a]quinolizin-2-one] was 500 to 1000 nM; that for `Cc1c2n(c(OC[C@@H]3COCCO3)cc1=O)CCc1cc(OCCF)ccc1-2` [Compound 159, 4-[[(2S)-1,4-dioxan-2-yl]methoxy]-9-(2-fluoroethoxy)-1-methyl-6,7-dihydrobenzo[a]quinolizin-2-one] was 0.01 to 100 nM.

A further test deals with human neutrophils. The experiment in a line: Human neutrophil migration assay. The class given is cell-based.
Settings: not given
As to the method:
The activity of GPR84 agonists and antagonists can therefore be assayed in a human neutrophil migration assay. The human neutrophil migration assay makes use of freshly isolated human neutrophils from buffy coats that are subsequently used in a functional chemotaxis assay setup. […] After 1 h of incubation at 37° C. and 5% CO2, the number of migrated neutrophils in the lower compartment can be quantified by measuring the ATP content using ATPlite™ Luminescence Assay System. A human buffy coat suspension is diluted with an equal volume of ice cold DPBS. 20 mL of the diluted buffy coat suspension is gently mixed with 4 mL of ACD buffer (140 mM citric acid, 200 mM sodium citrate and 220 mM dextrose). Then, 12 mL of a 6% dextran/0.9% NaCl solution (15 g dextran T2000 and 2.25 g NaCl dissolved in 250 mL H2O) is added to the mixture and the samples are inverted gently up to 20 times. The total volume is transferred to a new recipient and incubated at room temperature to allow sedimentation of red blood cells. The yellowish upper fraction is then transferred to a clean centrifugation tube and centrifuged for 12 min at 1300 rpm and 4° C. After centrifugation, the supernatant is discarded and the remaining cell pellet is rapidly resuspended in 12 mL of ice-cold H2O to perform a red blood cell lysis by osmotic burst. After 20 seconds, 4 mL of ice-cold 0.6 M KCl is added to restore salt concentration. Samples are mixed carefully and centrifuged for 6 min at 1300 rpm and 4° C. The supernatant is discarded and the red blood cell lysis procedure is repeated one more time. […] A neutrophil cell suspension of 8.9×10^6 cells per mL is prepared in chemotaxis buffer and 180 μL per well is plated in a 96-well V-bottom plate. 20 μL of test compound solution in chemotaxis buffer is added to the 180 μL cell suspension. The mixture is incubated at room temperature for 30 min with intermediate gentle resuspension of the cells after 15 min. […] After 1 h at 37° C., 5% CO2 in a humidified incubator, the upper plate of the Transwell® system is gently removed. […] After incubation, 270 μL of cell lysate is then transferred onto a white 96-well plate for quantification by a luminescence plate reader. The relative luminescent signal measured is considered linearly related to the number of cells having migrated from the upper compartment into the receiver well.
For the molecule `CCCCCCCCCC(=O)[O-].[Na+]` [sodium decanoate, reference compound], the “neutrophil chemotaxis induced by GPR84 agonists” value is on record as “induce neutrophil chemotaxis”.
As for `CCCCCCCCCCC(=O)[O-].[Na+]` [sodium undecanoate, reference compound], the “neutrophil chemotaxis induced by GPR84 agonists” value is listed as “induce neutrophil chemotaxis”.

The same test, now with this note: Homo sapiens, Neutrophil; embelin at EC80 as chemotactic agent; 1 h at 37° C.; read-out: Human neutrophil migration IC50.
For `COc1cc2c(cc1OC)-c1cc(=O)cc(NCC3CCCO3)n1CC2` (centres unmarked) [Compound 4, 9,10-Dimethoxy-4-[(tetrahydro-furan-2-ylmethyl)-amino]-6,7-dihydro-pyrido[2,1-a]isoquinolin-2-one], the IC50 is > 1000 nM.
The same measure, in the same setting: the value for `COc1cc2c(cc1OC)-c1c(C)c(=O)cc(NC[C@@H]3COCCO3)n1CC2` [Compound 6, 4-[[(2R)-1,4-dioxan-2-yl]methylamino]-9,10-dimethoxy-1-methyl-6,7-dihydrobenzo[a]quinolizin-2-one] was > 1000 nM; that for `Cc1c2n(c(NCC3CCCO3)cc1=O)CCc1cc(OCC3CC3(F)F)ccc1-2` (centres unmarked) [Compound 7, 9-(2,2-Difluoro-cyclopropylmethoxy)-1-methyl-4-[(tetrahydro-furan-2-ylmethyl)-amino]-6,7-dihydro-pyrido[2,1-a]isoquinolin-2-one] was 100 to 500 nM.
Still for that read-out and setting: the same measure for `Cc1c2n(c(NCC3CCCO3)cc1=O)CCc1cc(OC3CCCO3)ccc1-2` (centres unmarked) [Compound 9, -Methyl-4-[(tetrahydro-furan-2-ylmethyl)-amino]-9-(tetrahydro-furan-2-yloxy)-6,7-dihydro-pyrido[2,1-a]isoquinolin-2-one]: 100 to 500 nM.
On the same count and under the same terms, the same measure for `Cc1c2n(c(NCC3CCCCO3)cc1=O)CCc1cc(OCC(F)F)ccc1-2` (centres unmarked) [Compound 13, 9-(2,2-difluoroethoxy)-1-methyl-4-(tetrahydropyran-2-ylmethylamino)-6,7-dihydrobenzo[a]quinolizin-2-one]: 100 to 500 nM; for `Cc1c2n(c(NC[C@@H]3COCCO3)cc1=O)CCc1cc(OCc3ccccc3)ccc1-2` [Compound 34, 9-benzyloxy-4-[[(2R)-1,4-dioxan-2-yl]methylamino]-1-methyl-6,7-dihydrobenzo[a]quinolizin-2-one]: 0.01 to 100 nM; for `Cc1ccc(COc2ccc3c(c2)CCn2c(OC[C@@H]4COCCO4)cc(=O)c(C)c2-3)cn1` [Compound 52, 4-[[(2S)-1,4-dioxan-2-yl]methoxy]-1-methyl-9-[(6-methyl-3-pyridyl)methoxy]-6,7-dihydrobenzo[a]quinolizin-2-one]: 0.01 to 100 nM.
Consider `Cc1c2n(c(OC[C@@H]3COCCO3)cc1=O)CCc1cc(N3CCN(C(=O)OC(C)(C)C)CC3)ccc1-2` [Compound 60, tert-butyl 4-[4-[[(2S)-1,4-dioxan-2-yl]methoxy]-1-methyl-2-oxo-6,7-dihydrobenzo[a]quinolizin-9-yl]piperazine-1-carboxylate], for which the IC50 lay in the range of 0.01 to 100 nM.
On the same count and under the same terms, the value for `Cc1c2n(c(OC[C@@H]3COCCO3)cc1=O)CCc1cc(C3CN(C(=O)OC(C)(C)C)C3)ccc1-2` [Compound 71, tert-butyl 3-[4-[[(2S)-1,4-dioxan-2-yl]methoxy]-1-methyl-2-oxo-6,7-dihydrobenzo[a]quinolizin-9-yl]azetidine-1-carboxylate] was 0.01 to 100 nM; that for `Cc1c2n(c(OC[C@@H]3COCCO3)cc1=O)CCc1cc(OCCOC(F)(F)F)ccc1-2` [Compound 72, 4-[[(2S)-1,4-dioxan-2-yl]methoxy]-1-methyl-9-[2-(trifluoromethoxy)ethoxy]-6,7-dihydrobenzo[a]quinolizin-2-one] was 0.01 to 100 nM.
As to `Cc1c2n(c(OCC3COCCO3)cc1=O)CCc1cc(OCC(F)(F)F)ccc1-2` (centres unmarked) [Compound 90, 4-(1,4-dioxan-2-ylmethoxy)-1-methyl-9-(2,2,2-trifluoroethoxy)-6,7-dihydrobenzo[a]quinolizin-2-one], the IC50 lay within 0.01 to 100 nM.
